These results are taken from patent publication US5965582A, “N-benzylindole and benzopyrazole derivatives with anti-asthmatic, anti-allergic, anti-inflammatory and immunemodulating effect” (ASTA Medica Aktiengesellschaft, priority 1994, dated 1999).

For assay [1], the system named is IL-4 release from murine T-helper cells (D10.G4). The assay can be described thus: Inhibition of anti-CD3-induced release of interleucin (IL)-4 in vitro (CIL4TC). To be noted: anti-CD3-induced IL-4 release; for CIL4TC % inhibition: with 10 000 nmol/l; for IC50: 16 hours. It counts as cell-based. On the procedure: (§1) Inhibition of anti-CD3-induced release of interleucin (IL)-4 (CIL4TC) and IL-5-release (CIL5TC) in vitro
(§2) Murine T-helper cells (D10.G4) were used as IL-4/IL-5-producing cells. These cells were pre-incubated with the test substances for 30 minutes at 37° C. The cells were then stimulated at 37° C. to produce interleucins by adding a monoclonal antibody against the T-cell receptor domain CD3 (anti-CD3). After 16 hours, the cells were centrifuged off and the released interleucins were quantified in the cell supernatant with ELISAs for murine IL-4 and IL-5.

Assay [2] relates to IL-5 release from murine T-helper cells (D10.G4). The experiment in a line: Inhibition of anti-CD3-induced IL-5-release in vitro (CIL5TC). The assay is classed as cell-based. To be noted: 16 hours. The method, then:
as §1, §2

Assay [3] relates to allergically-induced histamine release from mast cells of the peritoneal and pleura cavities. The experiment in a line: Inhibition of allergically-induced histamine release in-vitro (CHIR). The assay is classed as cell-based, Sprague-Dawley rats. Conditions: for IC50: allergically-induced histamine release, rat mast cells, in vitro; for CHIR % inhibition: with 10 [μmol/l] (footnote: concentration unit 10,000 nmol/l). The method, then:
Inhibition of allergically-induced histamine release in-vitro (CHIR)
Meth. […] Sprague-Dawley rats were sensitised against egg albumin (EA) by subcutaneous injection of 30 mg EA with killed Bordetella pertussis bacteria as adjuvant. Four weeks later, the mast cells of the peritoneal and pleura cavities were isolated from these animals. The cells were washed, resuspended in tris gel CM (the composition of tris gel CM buffer is as follows:
the rest is water, the pH value of the solution is 7.6) buffer and pre-incubated with the test substances for 15 minutes at 37° C. The cells were then stimulated at 37° C. by adding the antigen EA to release histamine.

Assay [4] relates to eosinophilia in the lavage. The assay can be described thus: Late phase eosinophilia model in sensitised guinea pigs (bronchoalveolar lavage). It counts as in vivo, guinea pigs (Pirbright White). The method, then:
The in vitro investigations with D-22557 and D-22558 were continued in vivo (late phase eosinophilia model) in sensitised guinea pigs
Male guinea pigs (Pirbright White, 200-250 g. Charles River Wiga, Sulfeld) were actively sensitised using a s.c. injection cf ovalbumin (10μg+100 mg aluminium hydroxide) and boosted 2 weeks later. One week after the booster injection the animals were exposed for 30 seconds to an aerosol made from 0.5% ovalbumin solution. 24 hours later brochoalveolar lavage (BAL) was carried out with 2×5 ml physiol. salt solution in animals sacrificed using an overdose of pentobarbital sodium and desanguinated. The lavage fluid was pooled, centrifuged for 10 minutes at 400×g and the cell pellet resuspended in 1 ml physiological salt solution. The eosinophiles were counted in a Neubauer chamber after staining by using a Becton Dickinson eosinophile test kit. Percentage Inhibition of the eosinophilia in the lavage was calculated in percent by comparing the eosinophile count of the groups treated with substance with the eosinolphile count of normal (unchallenged) and challenged control groups not treated with the substance. Each group numbered 10 animals. Test substances were either given prophylactically 2 hours before allergen challenge (-2 h) or therapeutically 4 hours after challenge (+4 h). When the therapeutic application was investigated, the animals (all groups) received azelastin (10 μg/kg po) 2 hours before allergen challenge to avoid deaths arising due to the onset of early phase bronchoconstriction.

Where [5] appears, read: 5 mg/kg ip, -2 h (before allergen challenge).

Structures can show the parent of a compound that is named as a salt.

Turning to `Fc1ccc(Cn2cc(CCCNc3ccncc3)c3ccccc32)cc1` [D-22698, N-(4-pyridyl-yl)-3-[1-(4-fluorobenzyl)indole-3-yl]propylamine], the CIL4TC % inhibition in assay [1] turned out to be 38%. The IC50 – broadly, the concentration needed to halve the response being measured – in assay [2] (Mus musculus) amounted to 7.77 µM.

For the compound `CCOC(=O)Nc1ccc(OC)nc1NCCCc1cn(Cc2ccc(F)cc2)c2ccccc12` [D-22993], the IC50 worked out at 0.54 µM in assay [3], 8.97 µM in assay [1] and 6.94 µM in assay [2].

In the case of `Fc1ccc(Cn2cc(CCCNc3cccnc3)c3ccccc32)cc1` [D-22686, N-(3-pyridyl-yl)-3-3[1-(4-fluorobenzyl)indole-3-yl]propylamine], the IC50 is 0.2 µM in assay [3] (Mast cell) and 7.31 µM in assay [2] (Mus musculus). In assay [1], this compound had a CIL4TC % inhibition of 41%.

For the compound `Cn1cc(CCCNc2ccncc2)c2ccccc21` [D-22697, N-(4-pyridyl-yl)-3-(1-methylindole-3-yl)propylamine], the IC50 in assay [1] (Mus musculus) was 7.29 µM; in assay [2] (Mus musculus) it was 2.88 µM.

`c1ccc(Cn2cc(CCNc3ccncc3)c3ccccc32)cc1` [D-22685, N-(4-pyridyl-yl)-2-(1-benzylindole-3-yl)ethylamine maleate] gave a CHIR % inhibition in assay [3] of 33%. Moreover, the IC50 in assay [1] (Mus musculus) is 8.58 µM; in assay [2] (Mus musculus), 6.89 µM.

Take `CCn1cc(CC(=O)Nc2ccncc2)c2ccccc21` [D-22693, N-(4-pyridyl-yl)-2-(1-ethylindole-3-yl)acetamide]: the IC50 in assay [3] (Mast cell) turned out to be 0.4 µM; in assay [2] (Mus musculus), 2.7 µM. Moreover, the CIL4TC % inhibition in assay [1] is 48%.

In assay [3], `Fc1ccc(Cn2cc(CCNc3ccncc3)c3ccccc32)cc1` [D-22561, N-(4-pyridyl-yl)-2-[1-(4-fluorobenzyl)indole-3-yl]ethylamine maleate] gave a CHIR % inhibition of 15%. The figures for the IC50 in assay [1] (Mus musculus) and in assay [2] (Mus musculus) were 5.68 µM and 3.21 µM, respectively.

With `CCOC(=O)Nc1ccc(OC)nc1NCCc1cn(Cc2ccccc2)c2ccccc12` [D-22992, N-(3-ethoxycarbonylamino-6-methoxy-(2-pyridyl))-2-(1-benzylindole-3-yl)ethylamine], the IC50 in assay [3] (Mast cell) worked out at 0.68 µM; in assay [1] (Mus musculus), 9.73 µM; in assay [2] (Mus musculus) it was 6.24 µM.

Regarding `CCOC(=O)Nc1ccc(N2CCc3c([nH]c4ccccc34)C2)nc1N` [D-22559, N-(6-amino-5-ethoxycarbonylamino-(-2-pyridyl))-1,2,3,4-tetrahydro-β-carboline], the values for the IC50 in assay [3] (Mast cell) and in assay [2] (Mus musculus) were 3.4 µM and 6.6 µM, respectively. Moreover, the CIL4TC % inhibition in assay [1] stood at 51%.

On to `Fc1ccc(Cn2cc(CCNc3cccnc3)c3ccccc32)cc1.O=C(O)/C=C\C(=O)O` [D-22557, N-(pyridine-3-yl)-2-[1-(4-fluorobenzyl)indole-3-yl]ethylamine maleate], for which the “% Inhibition of the eosinophilia in the lavage” value in assay [4] (0.5 mg/kg ip, -2 h (before allergen challenge)) came out at 59%; in assay [4] (1 mg/kg ip, -2 h (before allergen challenge)), 42%; in assay [4] (setting [5]), 50%.

On to `O=C(Cc1cn(Cc2ccc(F)cc2)c2ccccc12)Nc1ccncc1` [D-22558, N-(4-pyridyl)-[1-(4-fluorobenzyl)indole-3-yl]acetamide], for which the IC50 in assay [3] (Mast cell) came out at 0.016 µM; in assay [1] (Mus musculus) it was 7.97 µM; in assay [2] (Mus musculus) it was 1.52 µM. The “% Inhibition of the eosinophilia in the lavage” value in assay [4] (setting [5]) worked out at 41%; in assay [4] (10 mg/kg ip, +4 h (after challenge), animals received azelastin 10 μg/kg po 2 hours before challenge), 59%; in assay [4] (10 mg/kg po, -2 h (before allergen challenge)), 23%; in assay [4] (30 mg/kg po, -2 h (before allergen challenge)) it was 35%.
